This note sets out measurements from US9290478B2, “Substituted quinoxalines as FGFR kinase inhibitors” (ASTEX THERAPEUTICS LTD, priority 2010, dated 2016).

The target in one assay is FGFR3 (h) (Homo sapiens, UniProt P22607). Put plainly: FGFR3 (enzymatic assay), TR-FRET. The assay is classed as biochemical. The settings on record: 25 μM ATP; read-out: FGFR3 pIC50 (converted). The procedure: (§1) In a final reaction volume of 30 μL, FGFR3 (h) (40 ng/ml) was incubated with 50 mM HEPES pH 7.5, 6 mM MnCl2, 1 mM DTT, 0.1 mM Na3VO4, 0.01% Triton-X-100, 500 nM Btn-Flt3 and 25 μM ATP in the presence of compound (1% DMSO final). After incubation for 60 minutes at room temperature the reaction was stopped with 2.27 nM EU-anti P-Tyr, 7 mM EDTA, 31.25 nM SA-XL-665 and 0.02% BSA which was present for 60 minutes at room temperature. Time-Resolved Fluorescence Resonance Energy Transfer (TR-FRET) signal (ex340 nm. Em 620 nm, em 655 nm) was measured afterwards and results are expressed in RFU (Relative Fluorescence Units). In this assay, the inhibitory effect of different compound concentrations (range 10 μM to 0.1 nM) was determined and used to calculate an IC50 (M) and pIC50 (−log IC50) value.
FGFR3 (h), sequence (P22607 23-806): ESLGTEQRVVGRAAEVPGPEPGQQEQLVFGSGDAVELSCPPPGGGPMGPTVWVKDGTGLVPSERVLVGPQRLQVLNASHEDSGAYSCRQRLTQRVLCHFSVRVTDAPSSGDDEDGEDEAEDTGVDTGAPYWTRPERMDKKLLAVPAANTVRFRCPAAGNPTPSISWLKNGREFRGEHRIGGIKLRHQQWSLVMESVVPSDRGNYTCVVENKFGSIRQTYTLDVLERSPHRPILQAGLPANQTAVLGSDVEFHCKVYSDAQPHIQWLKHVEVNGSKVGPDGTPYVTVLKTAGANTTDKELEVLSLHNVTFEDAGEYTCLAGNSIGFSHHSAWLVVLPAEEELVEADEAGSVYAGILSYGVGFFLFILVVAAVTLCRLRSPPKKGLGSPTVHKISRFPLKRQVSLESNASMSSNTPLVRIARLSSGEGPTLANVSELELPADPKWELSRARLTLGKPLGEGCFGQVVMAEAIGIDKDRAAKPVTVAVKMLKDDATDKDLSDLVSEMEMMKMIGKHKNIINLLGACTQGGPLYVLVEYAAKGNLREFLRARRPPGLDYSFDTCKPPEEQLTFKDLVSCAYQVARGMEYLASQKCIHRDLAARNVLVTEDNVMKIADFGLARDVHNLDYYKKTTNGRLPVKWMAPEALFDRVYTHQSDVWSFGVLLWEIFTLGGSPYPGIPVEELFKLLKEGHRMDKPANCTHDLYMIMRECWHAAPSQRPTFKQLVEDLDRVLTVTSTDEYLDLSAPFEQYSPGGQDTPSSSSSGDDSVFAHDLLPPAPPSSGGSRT

Assay [1] concerns the target T1, Ba/F3-Flt3-transfected cells (Homo sapiens, UniProt P36888, cells depend on it, form not given).
T1 construct: BAF3-FLT3 (MIN IL3) pIC50; other: minus IL3
T1 sequence (P36888 1-993): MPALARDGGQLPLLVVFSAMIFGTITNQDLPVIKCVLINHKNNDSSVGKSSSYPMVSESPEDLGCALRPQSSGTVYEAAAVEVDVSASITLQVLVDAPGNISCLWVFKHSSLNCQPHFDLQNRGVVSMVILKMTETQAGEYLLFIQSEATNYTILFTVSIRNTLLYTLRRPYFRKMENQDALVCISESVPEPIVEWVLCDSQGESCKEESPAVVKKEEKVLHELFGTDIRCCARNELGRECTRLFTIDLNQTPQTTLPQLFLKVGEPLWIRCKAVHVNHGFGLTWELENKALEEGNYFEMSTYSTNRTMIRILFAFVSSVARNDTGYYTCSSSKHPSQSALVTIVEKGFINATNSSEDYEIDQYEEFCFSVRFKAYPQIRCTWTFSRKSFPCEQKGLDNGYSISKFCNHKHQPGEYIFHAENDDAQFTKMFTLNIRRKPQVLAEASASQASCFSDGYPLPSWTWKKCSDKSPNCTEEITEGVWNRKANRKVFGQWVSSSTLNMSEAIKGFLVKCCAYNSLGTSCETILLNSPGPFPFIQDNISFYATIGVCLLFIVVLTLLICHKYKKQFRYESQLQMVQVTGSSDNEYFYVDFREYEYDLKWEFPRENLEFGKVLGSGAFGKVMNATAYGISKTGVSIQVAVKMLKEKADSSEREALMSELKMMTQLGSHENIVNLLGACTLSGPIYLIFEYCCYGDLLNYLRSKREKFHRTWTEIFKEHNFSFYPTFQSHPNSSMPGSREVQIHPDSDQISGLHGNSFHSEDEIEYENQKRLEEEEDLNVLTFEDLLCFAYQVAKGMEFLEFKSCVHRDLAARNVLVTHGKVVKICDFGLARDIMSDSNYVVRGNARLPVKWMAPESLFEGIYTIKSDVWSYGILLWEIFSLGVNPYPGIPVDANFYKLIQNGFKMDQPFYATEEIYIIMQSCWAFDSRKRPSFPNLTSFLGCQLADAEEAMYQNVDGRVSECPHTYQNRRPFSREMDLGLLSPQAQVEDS
Put plainly: Ba/F3-Flt3 (minus IL3 or plus IL3) cellular proliferation assay. Type of assay: cell-based. Conditions: minus IL3. How it is done:
(§2) Ba/F3-Flt3 (Minus IL3 or Plus IL3) (Cellular Proliferation Assay)
(§3) In a 384 well plate, 100 nl of compound dilution in DMSO was sprayed before adding 50 μl cell culture medium (phenol red free RPMI-1640, 10% FBS, 2 mM L-Glutamine and 50 μg/ml Gentamycin) containing 20000 cells per well of Ba/F3-Flt3-transfected cells. Cells were put in an incubator at 37° C. and 5% CO2. After 24 hours, 10 μl of Alamar Blue solution (0.5 mM K3Fe(CN)6, 0.5 mM K4Fe(CN)6, 0.15 mM Resazurin and 100 mM Phosphate Buffer) was added to the wells, incubated for 4 hours at 37° C. and 5% CO2 before RFU's (Relative Fluorescence Units) (ex. 540 nm., em. 590 nm.) were measured in a fluororescence plate reader.
(§4) In this assay, the inhibitory effect of different compound concentrations (range 10 μM to 0.1 nM) was determined and used to calculate an IC50 (M) and pIC50 (−log IC50) value.
(§5) As a counterscreen the same experiment was performed in the presence of 10 ng/ml murine IL3.

Assay [2] concerns Ba/F3-Flt3-transfected cells. Described as above. The assay is classed as cell-based. Conditions: plus 10 ng/ml murine IL3 (counterscreen); for IC50: 24 h, read-out: BAF3_FLT3 (PLUS IL3) pIC50 (converted). The procedure: as §2, §3, §4, §5
The target of the next assay is FGFR1 (h) (Homo sapiens, UniProt P11362). Put plainly: FGFR1 (enzymatic assay), TR-FRET. Type of assay: biochemical. The settings on record: 5 μM ATP; read-out: FGFR1 pIC50 (converted). The procedure:
as §1, with “μL, FGFR1” for “μL, FGFR3”, “(h) (25” for “(h) (40”, “and 5” for “and 25”

FGFR1 (h), sequence (P11362 22-822): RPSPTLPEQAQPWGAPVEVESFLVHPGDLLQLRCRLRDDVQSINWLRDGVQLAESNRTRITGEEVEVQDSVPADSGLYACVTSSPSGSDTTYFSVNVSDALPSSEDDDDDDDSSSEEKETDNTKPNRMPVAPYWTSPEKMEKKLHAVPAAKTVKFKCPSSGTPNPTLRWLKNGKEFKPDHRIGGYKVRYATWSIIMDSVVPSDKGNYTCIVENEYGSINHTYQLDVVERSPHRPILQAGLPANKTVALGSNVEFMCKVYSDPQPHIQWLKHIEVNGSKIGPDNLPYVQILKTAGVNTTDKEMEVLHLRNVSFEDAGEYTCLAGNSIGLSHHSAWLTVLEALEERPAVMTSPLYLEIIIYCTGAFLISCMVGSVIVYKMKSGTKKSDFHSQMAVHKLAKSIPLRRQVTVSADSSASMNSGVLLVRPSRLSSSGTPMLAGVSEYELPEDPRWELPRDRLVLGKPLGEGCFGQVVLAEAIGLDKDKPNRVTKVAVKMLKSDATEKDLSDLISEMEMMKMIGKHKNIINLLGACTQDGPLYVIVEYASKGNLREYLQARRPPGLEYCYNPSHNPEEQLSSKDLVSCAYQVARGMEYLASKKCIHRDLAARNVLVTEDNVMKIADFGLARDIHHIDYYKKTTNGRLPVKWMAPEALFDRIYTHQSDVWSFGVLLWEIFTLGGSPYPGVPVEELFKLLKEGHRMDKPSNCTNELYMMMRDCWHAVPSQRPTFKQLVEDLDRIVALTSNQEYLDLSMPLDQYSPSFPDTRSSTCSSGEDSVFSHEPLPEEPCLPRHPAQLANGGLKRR

For the compound `COc1cc(OC)cc(C(CCCN)c2ccc3ncc(-c4cnn(C)c4)nc3c2)c1.Cl` (stereo not drawn) [Compound 40], the IC50 on FGFR3 (h) was 269 nM; in assay [2] it was more than 10000 nM; at FGFR1 (h), 490 nM. Further, in assay [1], the “BAF3-FLT3 (MIN IL3) pIC50” value is given as less than 5.
As to `COc1cc(OC)cc(C(CCNCC(F)(F)F)c2ccc3ncc(-c4cnn(C)c4)nc3c2)c1.Cl` (stereo not drawn) [Compound 33], the values for the IC50 (at FGFR3 (h); in assay [2]; at FGFR1 (h)) were 138 nM, more than 10000 nM and 224 nM, respectively. The “BAF3-FLT3 (MIN IL3) pIC50” value in assay [1] is listed as less than 5.
On the same counts, the results for `COc1cc(OC)cc(/C(=C/CN(C)C)c2ccc3ncc(-c4cnn(C)c4)nc3c2)c1` [Compound 34] are 107 nM, more than 10000 nM, 132 nM and less than 5.
In the case of `COc1cc(OC)cc(C(CCNC(C)C)c2ccc3ncc(-c4cnn(C)c4)nc3c2)c1` (single isomer, unassigned) [Compound 19a], the IC50 is 21.4 nM on FGFR3 (h), more than 10000 nM in assay [2] and 7.59 nM at FGFR1 (h). The “BAF3-FLT3 (MIN IL3) pIC50” value in assay [1] is reported as less than 5.
As for `COc1cc(OC)cc(/C(=C/C#N)c2ccc3ncc(-c4cnn(C)c4)nc3c2)c1` [Compound 3], the values for the IC50 (at FGFR3 (h); in assay [2]; on FGFR1 (h)) were 2190 nM, more than 10000 nM and 2290 nM, respectively. The “BAF3-FLT3 (MIN IL3) pIC50” value in assay [1] was less than 5.
On the same counts, the results for `COc1cc(OC)cc(C(CC(C)(O)CNC(C)C)c2ccc3ncc(-c4cnn(C)c4)nc3c2)c1.Cl` (stereo not drawn) [Compound 25] are 708 nM, more than 10000 nM, 794 nM and less than 5.
The like results for `COc1cc(OC)cc(C(O)(CNCCNC(C)C)c2ccc3ncc(-c4cnn(C)c4)nc3c2)c1` (single isomer, unassigned) [Compound 5] were, in that order, 575 nM, more than 10000 nM, 603 nM and less than 5.
Regarding `COc1cc(OC)cc(C(NCCNC(C)C)c2ccc3ncc(-c4cnn(C)c4)nc3c2)c1.Cl` (single isomer, unassigned) [Compound 39], the IC50 on FGFR3 (h) and on FGFR1 (h) was more than 1000 nM in each case. The “BAF3-FLT3 (MIN IL3) pIC50” value in assay [1] is less than 5. The “BAF3_FLT3 (PLUS IL3) pIC50” value in assay [2] is recorded as less than 5.
In the case of `COc1cc(OC)cc(C(CCN)c2ccc3ncc(-c4cnn(C)c4)nc3c2)c1.Cl` (stereo not drawn) [Compound 20], the IC50 at FGFR3 (h) was 61.7 nM; in assay [2] it was more than 10000 nM; at FGFR1 (h), 77.6 nM. Moreover, the “BAF3-FLT3 (MIN IL3) pIC50” value in assay [1] was less than 5.
The like results for `COc1cc(OC)cc(/C(=C\C#N)c2ccc3ncc(-c4cnn(C)c4)nc3c2)c1` [Compound 4] were, in that order, 36.3 nM, more than 10000 nM, 53.7 nM and 5.29.
The like results for `COc1cc(OC)cc(C(NCCNC(C)C)c2ccc3ncc(-c4cnn(C)c4)nc3c2)c1.Cl` (single isomer, unassigned) [Compound 24] were, in that order, 257 nM, more than 10000 nM, 182 nM and less than 5.
The like results for `COc1cc(OC)cc(/C(=C\CNC(C)C)c2ccc3ncc(-c4cnn(C)c4)nc3c2)c1` [Compound 8, {(Z)-3-(3,5-Dimethoxy-phenyl)-3-[3-(1-methyl-1H-pyrazol-4-yl)-quinoxalin-6-yl]-allyl}-isopropyl-amine] were, in that order, 8.71 nM, approximately 8710 nM, 7.76 nM and 5.09.
Regarding `COc1cc(OC)cc(C(=O)c2ccc3ncc(-c4cnn(C)c4)nc3c2)c1` [Compound 2], the IC50 is 66.1 nM on FGFR3 (h), more than 10000 nM in assay [2] and 117 nM on FGFR1 (h). Also, the “BAF3-FLT3 (MIN IL3) pIC50” value in assay [1] is listed as less than 5.
For the compound `COc1cc(OC)cc(/C(=C\CNCC(F)(F)F)c2ccc3ncc(-c4cnn(C)c4)nc3c2)c1` [Compound 14, {(Z)-3-(3,5-Dimethoxy-phenyl)-3-[3-(1-methyl-1H-pyrazol-4-yl)-quinoxalin-6-yl]-allyl}-(2,2,2-trifluoro-ethyl)-amine], the results for the IC50 (on FGFR3 (h); in assay [2]; at FGFR1 (h)) were 4.68 nM, more than 10000 nM and 13.8 nM, respectively. Also, in assay [1], the “BAF3-FLT3 (MIN IL3) pIC50” value is less than 5.
On the same counts, the results for `COc1cc(OC)cc(/C(=C\CN(C)C)c2ccc3ncc(-c4cnn(C)c4)nc3c2)c1` [Compound 10, {(Z)-3-(3,5-Dimethoxy-phenyl)-3-[3-(1-methyl-1H-pyrazol-4-yl)-quinoxalin-6-yl]-allyl}-dimethyl-amine] are 9.12 nM, more than 10000 nM, 17 nM and less than 5.
Regarding `COc1cc(OC)cc(C(CCNC(C)C)c2ccc3ncc(-c4cnn(C)c4)nc3c2)c1` (single isomer, unassigned) [Compound 32a], the IC50 on FGFR3 (h) is approximately 912 nM; at FGFR1 (h) it was 661 nM. For the same compound, the “BAF3-FLT3 (MIN IL3) pIC50” value in assay [1] was less than 5. Also, the “BAF3_FLT3 (PLUS IL3) pIC50” value in assay [2] was less than 5.
Regarding `COc1cc(OC)cc(C(CCN(C)C)c2ccc3ncc(-c4cnn(C)c4)nc3c2)c1.Cl` (stereo not drawn) [Compound 21], the IC50 at FGFR3 (h) is 67.6 nM; in assay [2] it was more than 10000 nM; at FGFR1 (h) it was 37.2 nM. For the same compound, in assay [1], the “BAF3-FLT3 (MIN IL3) pIC50” value is listed as less than 5.
The like results for `COc1cc(OC)cc(C(CCNC(C)C)c2ccc3ncc(-c4cnn(C)c4)nc3c2)c1.Cl` (stereo not drawn) [Compound 29, {3-(3,5-Dimethoxy-phenyl)-3-[3-(1-methyl-1H-pyrazol-4-yl)-quinoxalin-6-yl]-propyl}-isopropyl-amine] were, in that order, 35.5 nM, more than 10000 nM, 22.9 nM and less than 5.
On to `COc1cc(OC)cc(C(O)(CNCCNC(C)C)c2ccc3ncc(-c4cnn(C)c4)nc3c2)c1` (single isomer, unassigned) [Compound 6], for which the IC50 at FGFR3 (h) is 676 nM; at FGFR1 (h), 955 nM. The “BAF3-FLT3 (MIN IL3) pIC50” value in assay [1] is less than 5.
